Measurements taken from the Deep4Chem optical property database.
Values belong to the compound of their own block, whether it stands above or below them.

Test: photoluminescence quantum yield (fraction); solvent given as SMILES

photoluminescence quantum yield (in C1CCCCC1): 0.67 | photoluminescence quantum yield (in CC#N): 0.21
Structure (SMILES): C[Si](C)(c1cccc2ccccc12)[Si](C)(C)c1c2ccccc2cc2ccccc12

photoluminescence quantum yield (in C1CCCCC1): 0.29 | photoluminescence quantum yield (in C1CCOC1): 0.47 | photoluminescence quantum yield (in CC#N): 0.31
Structure (SMILES): Cc1ccc2nc3c(nc2c1)c(-c1ccccc1)nn3C

photoluminescence quantum yield (in CC(C)O): 0.65 | photoluminescence quantum yield (in CCCCCC): 0.49 | photoluminescence quantum yield (in CO): 0.6 | photoluminescence quantum yield (in CS(C)=O): 0.49 | photoluminescence quantum yield (in ClCCl): 0.27
Structure (SMILES): COc1ccccc1-c1nc(-c2ccc(C(F)(F)F)cc2)n(-c2ccc(C)cc2)c1-c1ccccc1OC

photoluminescence quantum yield (in ClCCl): 0.002
Structure (SMILES): N#C/C(=C(/C#N)c1ccc(-c2ccncc2)cc1)c1ccc(-c2ccncc2)cc1

photoluminescence quantum yield (in CC#N): 0.24
Structure (SMILES): COc1cc2cc(/C=C/c3ccc(/C=C/c4ccc(/C=C(\C#N)C(=O)O)cc4)cc3)c(=O)oc2cc1OC

photoluminescence quantum yield (in C1CCOC1): 0.29
Structure (SMILES): Cc1ccc(-c2cnc3nn4ccccc4c3c2)cc1

photoluminescence quantum yield (in C1CCCCC1): 0.05 | photoluminescence quantum yield (in CO): 0.006
Structure (SMILES): C(=C\c1nc2ccccc2o1)/c1ccccc1

photoluminescence quantum yield (in ClC(Cl)Cl): 0.672
Structure (SMILES): CCC1=C(C)C2C(c3ccc(-c4ccc(-c5nc6c7ccccc7c7ccccc7c6n5-c5ccc(C(C)(C)C)cc5)cc4)cc3)c3c(C)c(CC)c(C)n3[B-](F)(F)[N+]2=C1C (configuration not stated)

photoluminescence quantum yield (in ClC(Cl)Cl): 0.106
Structure (SMILES): F[B-]1(F)OC(c2cccc(Br)c2)=Cc2c3ccccc3c3ccccc3[n+]21

photoluminescence quantum yield (in CO): 0.005
Structure (SMILES): N#Cc1c(-n2nnc3c2-c2ccccc2CN(C(=O)CCN)c2ccccc2-3)n([C@H]2C[C@H](O)[C@@H](CO)O2)c2ncnc(N)c12

photoluminescence quantum yield (in ClCCl): 1
Structure (SMILES): C1=C(c2ccccc2)S[C@]23C1=C(c1ccccc1)[C@H](c1ccccc12)c1ccccc13

photoluminescence quantum yield (in C1CCOC1): 0.07
Structure (SMILES): CSC1=C(C)C2=C(c3ccc(C)cc3)c3c(C)c(Cl)c(C)n3[B-](F)(F)[N+]2=C1C

photoluminescence quantum yield (in C1CCOC1): 0.343
Structure (SMILES): CC(C)(C)c1ccc(-c2c(-c3ccc(-n4c5ccccc5c5ccccc54)cc3)cc(-c3ccc(-n4c5ccccc5c5ccccc54)cc3)c(-c3ccc(C(C)(C)C)cc3)c2-c2ccc(C(C)(C)C)cc2)cc1

photoluminescence quantum yield (in CCO): 0.95 | photoluminescence quantum yield (in ClCCl): 1
Structure (SMILES): Cc1ccccc1-c1c2ccc(=[N+]3CCCC3)cc-2oc2cc(N3CCCC3)ccc12

photoluminescence quantum yield (in C1CCOC1): 0.042
Structure (SMILES): CN(C)c1ccc(C(=Cc2ccc(/C=C/c3ccc(C#N)cc3)cc2)c2ccc(N(C)C)cc2)cc1

photoluminescence quantum yield (in CC#N): 0.02 | photoluminescence quantum yield (in CCCCCC): 0.01 | photoluminescence quantum yield (in CCOC(C)=O): 0.01 | photoluminescence quantum yield (in CO): 0.02 | photoluminescence quantum yield (in ClCCl): 0.02
Structure (SMILES): COc1ccc2n1[B-](F)(F)[N+]1=CC=CC1=C2c1ccccc1

photoluminescence quantum yield (in ClCCl): 0.3
Structure (SMILES): COc1ccc(-c2cc(-c3ccc(C#N)cc3)nn2C)cc1

photoluminescence quantum yield (in C1CCOC1): 0.32
Structure (SMILES): CCC1(CC)c2cc(Br)ccc2-c2c1c1c(c3c2C(CC)(CC)c2cc(-c4cccs4)ccc2-3)C(CC)(CC)c2cc(Br)ccc2-1

photoluminescence quantum yield (in C1CCOC1): 0.3
Structure (SMILES): c1ccc(/C(=C(\c2ccccc2)c2cc(-c3ccccc3)ccc2-c2ccccc2)c2cc(-c3ccccc3)ccc2-c2ccccc2)cc1

photoluminescence quantum yield (in CCCCCC): 0.29 | photoluminescence quantum yield (in CCO): 0.3 | photoluminescence quantum yield (in CCOC(C)=O): 0.29 | photoluminescence quantum yield (in ClCCl): 0.38
Structure (SMILES): Cc1ccc(C#Cc2ccc3ccc4cccc5ccc2c3c45)cc1

More lines, now with the values behind:

Structure (SMILES): C(#Cc1c(C#Cc2cccs2)c(C#Cc2cccs2)c(C#Cc2cccs2)c(C#Cc2cccs2)c1C#Cc1cccs1)c1cccs1
photoluminescence quantum yield (in ClCCl): 0.27

Structure (SMILES): CCCCCCCCCCCCCCCCOc1cc(C#Cc2ccc3ccccc3c2)c(OCCCCCCCCCCCCCCCC)cc1C#Cc1ccc(C=C(C#N)C#N)cc1
photoluminescence quantum yield (in Brc1ccccc1): 0.43 | photoluminescence quantum yield (in C1CCCCC1): 0.9 | photoluminescence quantum yield (in C1CCOC1): 0.5 | photoluminescence quantum yield (in C1COCCO1): 0.5 | photoluminescence quantum yield (in CCCCCC): 0.87 | photoluminescence quantum yield (in CCCCCCCCO): 0.35 | photoluminescence quantum yield (in CCCCOCCCC): 0.81 | photoluminescence quantum yield (in CCOC(C)=O): 0.23 | photoluminescence quantum yield (in CCOCC): 0.79 | photoluminescence quantum yield (in Cc1ccccc1): 0.82 | photoluminescence quantum yield (in ClC(Cl)(Cl)Cl): 0.81 | photoluminescence quantum yield (in ClC(Cl)Cl): 0.78 | photoluminescence quantum yield (in ClCCl): 0.19

Structure (SMILES): Cc1ccccc1C
photoluminescence quantum yield (in C1CCCCC1): 0.26

Structure (SMILES): CC(=O)c1ccc(-c2nc3ccc(N(C)C)c(Br)c3s2)cc1
photoluminescence quantum yield (in C1CCCCC1): 0.11 | photoluminescence quantum yield (in CC#N): 0.54 | photoluminescence quantum yield (in CO): 0.046 | photoluminescence quantum yield (in ClC(Cl)Cl): 0.82

Structure (SMILES): F[B-]1(F)n2ccnc2-c2cccc[n+]21
photoluminescence quantum yield (in C1CCCCC1): 0.03 | photoluminescence quantum yield (in C1CCOC1): 0.44 | photoluminescence quantum yield (in C1COCCO1): 0.28 | photoluminescence quantum yield (in CC#N): 0.28 | photoluminescence quantum yield (in CCCCCC): 0.03 | photoluminescence quantum yield (in CO): 0.03 | photoluminescence quantum yield (in ClC(Cl)Cl): 0.14

Structure (SMILES): COC(=O)c1nc2cnc(N(C)C)nc2n1Cc1ccccc1
photoluminescence quantum yield (in C1COCCO1): 0.83 | photoluminescence quantum yield (in CC#N): 0.6 | photoluminescence quantum yield (in CO): 0.17 | photoluminescence quantum yield (in ClCCl): 0.81

Structure (SMILES): O=c1c2ccccc2[nH]c2ccccc12
photoluminescence quantum yield (in CS(C)=O): 0.75

Structure (SMILES): CC[N+]1(CC)CN2C(=N1)C(C(=O)O)=Cc1cc(Oc3ccccc3)ccc12
photoluminescence quantum yield (in O): 0.592

Structure (SMILES): CC(C)[Si](C#Cc1ccc2c(C#C[Si](C(C)C)(C(C)C)C(C)C)cc3c4cc(C#C[Si](C(C)C)(C(C)C)C(C)C)ccc4c(C#C[Si](C(C)C)(C(C)C)C(C)C)cc3c2c1)(C(C)C)C(C)C
photoluminescence quantum yield (in ClCCl): 0.741

Structure (SMILES): CC1(C)C(/C=C/C2=C(Cl)C(=C/C=C3/N(CCCCCC(=O)O)c4ccccc4C3(C)C)/CCC2)=[N+](CCCCCC(=O)O)c2ccccc21
photoluminescence quantum yield (in CCO): 0.119

Structure (SMILES): F[B-]1(F)n2c(/C=C/c3ccc(C(=C(c4ccccc4)c4ccccc4)c4ccccc4)cc3)ccc2C(c2ccc(C(=C(c3ccccc3)c3ccccc3)c3ccccc3)cc2)=C2C=CC(/C=C/c3ccc(C(=C(c4ccccc4)c4ccccc4)c4ccccc4)cc3)=[N+]21
photoluminescence quantum yield (in C1CCOC1): 0.503

Structure (SMILES): Cc1cc(C)c(B(c2ccccc2N(c2ccccc2)c2ccccc2)c2c(C)cc(C)cc2C)c(C)c1
photoluminescence quantum yield (in Cc1ccccc1): 0.73

Structure (SMILES): c1ccc(C(=C(c2ccccc2)c2ccc(-c3nc4c(-c5ccc(C(=C(c6ccccc6)c6ccccc6)c6ccccc6)cc5)sc(-c5ccc(C(=C(c6ccccc6)c6ccccc6)c6ccccc6)cc5)c4nc3-c3ccc(C(=C(c4ccccc4)c4ccccc4)c4ccccc4)cc3)cc2)c2ccccc2)cc1
photoluminescence quantum yield (in Cc1ccccc1): 0.267 | photoluminescence quantum yield (in ClCCl): 0.109

Structure (SMILES): Cc1ccc(C2=[N+]3C(=Cc4ccc(C)n4[B-]3(F)F)c3ccccc32)[nH]1
photoluminescence quantum yield (in C1CCOC1): 0.81 | photoluminescence quantum yield (in CC#N): 0.8 | photoluminescence quantum yield (in CCCCCC): 0.83 | photoluminescence quantum yield (in CO): 0.83 | photoluminescence quantum yield (in Cc1ccccc1): 0.78 | photoluminescence quantum yield (in ClCCl): 0.79

Structure (SMILES): c1ccc(-c2nc(-c3ccccc3)nc(-c3cc(-n4c5ccccc5c5ncccc54)c(-n4c5ccccc5c5ccccc54)c(-n4c5ccccc5c5ncccc54)c3)n2)cc1
photoluminescence quantum yield (in O=P(c1ccccc1)(c1ccccc1)c1ccccc1Oc1ccccc1P(=O)(c1ccccc1)c1ccccc1): 0.85

Structure (SMILES): c1ccc(N(c2ccccc2)c2ccc3c(ccc4nc5ccc6cc(N(c7ccccc7)c7ccccc7)ccc6c5nc43)c2)cc1
photoluminescence quantum yield (in C1CCCCC1): 0.56 | photoluminescence quantum yield (in C1CCOC1): 0.59 | photoluminescence quantum yield (in CN(C)C=O): 0.34 | photoluminescence quantum yield (in Cc1ccccc1): 0.44 | photoluminescence quantum yield (in ClCCl): 0.64

Structure (SMILES): CCC1=C(C)C2=C(c3c4ccccc4c(C)c4ccccc34)c3c(C)c(CC)c(C)n3[B-](F)(F)[N+]2=C1C
photoluminescence quantum yield (in CC#N): 0.054 | photoluminescence quantum yield (in CCCCCC): 0.883 | photoluminescence quantum yield (in CCO): 0.314 | photoluminescence quantum yield (in CN(C)C=O): 0.111 | photoluminescence quantum yield (in Cc1ccccc1): 0.863 | photoluminescence quantum yield (in ClCCl): 0.667

Structure (SMILES): N#C/C(=C/Nc1ccc(C#N)cc1)c1nc(-c2ccccc2)cs1
photoluminescence quantum yield (in CC#N): 0 | photoluminescence quantum yield (in CCO): 0.0001 | photoluminescence quantum yield (in CN(C)C=O): 0.0001 | photoluminescence quantum yield (in Cc1ccccc1): 0.0001 | photoluminescence quantum yield (in ClCCl): 0.0001
